The values that follow come from PMC2697320, “Identification of the high affinity binding site in the Streptococcus intermedius toxin intermedilysin for its membrane receptor, the human complement regulator CD59” (Molecular Immunology, 2009).

Where no end group is shown, it is not given here.

One series has as its system human erythrocytes. Nature of the series: Hemolytic assay for complement (C) activity, antibody-sensitised human erythrocytes. The format is cell-based. As to conditions: at the dilutions used in these assays. The procedure:
Hemolytic assays for C activity were performed using human erythrocytes sensitised with an in-house rabbit polyclonal antiserum against human CD55 as described ([Cole et al., 2006]). Sensitised erythrocytes (2% in CFD; 50 μl/well) were incubated for 30 min with various dilutions of human serum in CFD in the absence or presence of test peptides or blocking anti-CD59 antibodies. Plates were centrifuged and percent lysis calculated as above. Statistical analyses were carried out using unpaired Student's t-tests.

A further series has as its target T1, CD59 (Homo sapiens, UniProt P13987).
T1 construct: Recombinant soluble CD59 comprising amino acids 1–76 with an 11 amino acid Ser/Gly linker; made in house
T1 sequence (P13987 26-101): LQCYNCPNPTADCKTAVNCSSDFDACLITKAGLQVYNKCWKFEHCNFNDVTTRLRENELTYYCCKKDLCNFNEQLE
Nature of the series: biochemical. The format is binding. As to conditions: SPR steady state, immobilised CD59, 25 °C; read-out: KD, printed in Fig. 3C.

Description for CD59: All surface plasmon resonance (SPR) analyses were carried out on a Biacore T100 (Biacore International SA, Stevenage, UK). Proteins were coupled to the sensor chip surface using thiol-based coupling chemistry. Briefly, recombinant CD59 was subjected to mild reduction for 16 h at 20 °C using TCEP at a molar ratio TCEP:CD59 of 3:1 [120 μm:40 μM] to reduce the terminal Cys residue while leaving internal disulphide bonds intact. An S-series CM5 carboxy-dextran coated chip was then activated using NHS/EDC (N-hydroxysuccinimide/1-ethyl-3(3-dimethyl aminopropyl)-carbodiimide hydrochloride) according to the manufacturer's protocol. The activated surface was further modified by flowing 80 mM 2-(2-pyridinyldithio)-ethaneamine hydrochloride (PDEA) in 0.1 M sodium borate (pH 8.5) to introduce reactive disulphide groups into the matrix. Reduced CD59 was flowed over this surface at pH 3.4 (10 mM NaCitrate) and coupling through the free amino-terminal thiol in the reduced CD59 monitored in real time. Blocking of residual activated residues was achieved by flowing 50 mM L-cysteine in 100 mM NaAcetate pH 4 containing 1 M NaCl. […] For all kinetic analyses, data were collected at 25 °C at a flow rate of 30 μl/min. […] Interactions were analysed in HBS containing 0.05% surfactant P20 and 3 mM EDTA. Data were evaluated using Biacore T100 Evaluation software.

With GLAWEPWRLIYSKNDLPLVPC [ILY peptide], the “lysis by peptide itself above background” value in the series on human erythrocytes is recorded as “neither “sense” nor jumbled peptide caused any lysis above background”. The Kd (usually the constant that tells how readily two partners part at equilibrium) on CD59 stood at 4.92 µM.
